Laboratory results from patent publication US8933046B2 (priority 2009, dated 2015).

Assays:
[1] = tested on: viral M1 and M2 protein (influenza A/WSN/33); format: cell-based, influenza A virus
[2] = tested on: vesicular stomatitis virus (VSV); format: cell-based; settings: TG003 50 μM, A549 pretreated 24 h, VSV MOI 0.01, 24 h p.i.
[3] = tested on: viral M1 and M2 mRNA (influenza A/WSN/33); format: cell-based, influenza A virus
A549 cells = assay: Influence of TG003 on cell viability (WST-1 assay); format: cell-based, human; settings: TG003 50 μM
Description: FIG. 18|Influence of the chemical CLK1 inhibitor TG003 on cell viability. A549 cells were incubated with TG003 (50 μM, dissolved in DMSO), with DMSO or left untreated. Cell viability was evaluated at the indicated time points using the WST-1 assay, according to the manufacturer's instructions. Shown are the mean values from three replicates. Error bars indicate the standard deviation.
Determination of host cell viability upon siRNA transfection was performed using cell proliferation assay WST-1 (Roche, Mannheim, Germany). WST-1 reagent was added to the cells 48 h after siRNA transfection and incubated at 37° C. for 1.5 h. Absorbance was measured at 460 nm and at the reference wavelength 590 nm. Non-targeting siRNA Allstars and siPLK1 were used as a […].

[4] = tested on: influenza A/Hamburg/04/2009 (H1N1) virus; format: cell-based
[5] = tested on: influenza A/WSN/33 (H1N1) virus; format: cell-based

| Compound | M1 protein levels [1] | M2 protein levels [1] | replication of vesicular stomatitis virus (VSV) [2] | levels of spliced M2 viral RNA [3] | unspliced M1 and NS1/NS2 viral RNA [3] | toxic effects (cell viability, WST-1) (A549 cells) | normalised inhibition of infectious virus particles, siRNA1 [4] | normalised inhibition of infectious virus particles, siRNA2 [4] | normalised inhibition of infectious virus particles, siRNA3 [4] | normalised inhibition of infectious virus particles, siRNA4 [4] | normalised inhibition of infectious virus particles, siRNA1 [5] | normalised inhibition of infectious virus particles, siRNA2 [5] | normalised inhibition of infectious virus particles, siRNA3 [5] | normalised inhibition of infectious virus particles, siRNA4 [5] |
| --- | --- | --- | --- | --- | --- | --- | --- | --- | --- | --- | --- | --- | --- | --- |
| CCN1/C(=C/C(C)=O)Sc2ccc(OC)cc21 [TG003] | remained relatively constant | drastically reduced | only slightly reduced | reduced | unaffected | without exerting detectable toxic effects | – | – | – | – | – | – | – | – |
| WNT3A | – | – | – | – | – | – | 0.53 | 0.4 | 0.91 | 1.1 | 0.36 | −0.16 | 0.64 | 0.81 |
